In patent US20240140958A1, “FUSED QUADRACYCLIC COMPOUNDS, COMPOSITIONS AND USES THEREOF” (Tabomedex Biosciences, Inc., priority 2021, published 2024):

Tests used:
[1] = molecular target: T1, MAPKAPK2 Recombinant Human Protein (Homo sapiens, UniProt P49137); test: MK2 kinase assay (Z'-LYTE kinase assay kit); settings: inhibition of MK2 biochemical activity; 90 min incubation at room temperature
T1 construct: purchased ThermoFisher pv3317
Outline: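 Z'-LYTE FRET assay with recombinant human MAPKAPK2 and peptide substrate; compound and ATP added, kinase reaction 90 min at room temperature, then development 60 min before stop. Coumarin (445 nm) and fluorescein (520 nm) emissions read at 400 nm excitation.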

[2] = test system: THP-1 cells; test: THP-1 cell assay: LPS-stimulated pSer78-Hsp27 ELISA; assay type: cell-based; settings: Homo sapiens, PMA-differentiated THP-1 cells, compound 60 min before 20 ng/mL LPS for 30 min
Outline: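 PMA-differentiated THP-1 cells (20 ng/mL PMA 24 h, then 48 h recovery) pretreated with compound 60 min, then stimulated with 20 ng/mL LPS for 30 min. Lysates (~2.5 μg/well) assayed by sandwich ELISA for pSer78-Hsp27, absorbance at 450 nm.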

T1 sequence (P49137 whole entry): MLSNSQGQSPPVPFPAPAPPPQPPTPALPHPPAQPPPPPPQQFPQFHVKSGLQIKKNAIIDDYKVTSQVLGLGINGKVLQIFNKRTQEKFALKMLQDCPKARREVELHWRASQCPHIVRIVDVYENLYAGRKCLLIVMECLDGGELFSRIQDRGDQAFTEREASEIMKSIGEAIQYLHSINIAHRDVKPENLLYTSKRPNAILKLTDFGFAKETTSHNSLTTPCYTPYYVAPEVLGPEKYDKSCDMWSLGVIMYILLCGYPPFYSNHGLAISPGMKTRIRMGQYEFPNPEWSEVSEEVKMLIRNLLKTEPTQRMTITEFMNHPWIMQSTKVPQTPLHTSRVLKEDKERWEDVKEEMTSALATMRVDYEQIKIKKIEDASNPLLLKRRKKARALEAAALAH

## N#Cc1ccc(-c2cc3n(c2)Cc2cc(N4C[C@@H](CN5CC(F)C5)CC4=O)ccc2-n2ccnc2-3)cc1 [Example 28]
[1]
  IC50: < 50 nM
[2]
  IC50: 500 to 1000 nM

## CN(CCO)C[C@H]1CC(=O)N(c2ccc3c(c2)Cn2cc(-c4ccc(C#N)cc4)cc2-c2nccn2-3)C1 [Example 11]
[1]
  IC50: 50 to 100 nM
[2]
  IC50: 100 to 200 nM

## CN(C)C[C@@H]1CCN(c2ccc3c(c2)Cn2cc(-c4ccc(C#N)cc4)cc2-c2nccn2-3)C1=O (single isomer, unassigned) [Example 36]
[1]
  IC50: < 50 nM
[2]
  IC50: < 50 nM

## CCNC[C@H]1CC(=O)N(c2ccc3c(c2)Cn2cc(-c4ccc(C#N)cc4)cc2-c2nccn2-3)C1 [Example 10]
[1]
  IC50: < 50 nM
[2]
  IC50: 100 to 200 nM

## CN(C)CCN1C(=O)CN(c2ccc3c(c2)Cn2cc(-c4ccc(C#N)cc4)cc2-c2nccn2-3)C1=O [Example 75, 4-(7-(3-(2-(Dimethylamino)ethyl)-2,4-dioxoimidazolidin-1-yl)-9H-benzo[e]imidazo[2,1-c]pyrrolo[1,2-a][1,4]diazepin-12-yl)benzonitrile]
[1]
  IC50: < 50 nM
[2]
  IC50: < 50 nM

## N#Cc1ccc(-c2cc3n(c2)Cc2cc(N4C[C@@H](CN)CC4=O)ccc2-n2ccnc2-3)cc1 [Example 8]
[1]
  IC50: < 50 nM
[2]
  IC50: 300 to 400 nM

## CN(C)C[C@H]1CCN(c2ccc3c(c2)Cn2cc(-c4ccc(C#N)cc4)cc2-c2nccn2-3)C1=O (single isomer, unassigned) [Example 35]
[1]
  IC50: < 50 nM
[2]
  IC50: < 50 nM

## N#Cc1ccc(-c2cc3n(c2)Cc2cc(N4C[C@@H](CNC5COC5)CC4=O)ccc2-n2ccnc2-3)cc1 [Example 14]
[1]
  IC50: 50 to 100 nM
[2]
  IC50: 100 to 200 nM

## CC(C)N1CCC(C(=O)Nc2ccc3c(c2)Cn2cc(-c4ccc(C#N)cc4)cc2-c2nccn2-3)C1 (stereo not drawn) [Example 77, N-(12-(4-Cyanophenyl)-9H-benzo[e]imidazo[2,1-c]pyrrolo[1,2-a][1,4]diazepin-7-yl)-1-isopropylpyrrolidine-3-carboxamide]
[1]
  IC50: 50 to 100 nM
[2]
  IC50: 100 to 200 nM
